The supplement of paper PMC4862054

Tests used:
Conditions in all cases: incubation time: 72 h
MDA-MB-468 [1] = test: normalised response (% of control), CellTiter-Glo; higher = more viable cells (100 = DMSO, 0 = benzethonium chloride kill control)
How it was run: (§1)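 Breast cancer cell lines in 20 µl suspension were added to 384-well plates containing compound at 5 concentrations, spaced in 10-fold steps across a 10,000-fold range chosen for each compound, and incubated for 72 h. CellTox Green fluorescence was read at 485/520 nm, followed by CellTiter-Glo luminescence after 10 min at room temperature. Signals on each plate were normalised so that 0.1 % DMSO equals 100 and a positive kill control equals 0. Every value in the table is the normalised signal at one concentration of the series.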

DU-4475 [2] = test: as above
How it was run: as §1

MDA-MB-231 [3] = test: as above
How it was run: as §1

CAL-120 [4] = test: as above
How it was run: as §1

MCF-10A = test: as above
How it was run: as §1

HCC1937 [5] = test: as above
How it was run: as §1

MFM-223 [6] = test: as above
How it was run: as §1

CAL-148 [7] = test: as above
How it was run: as §1

BT-474 [8] = test: as above
How it was run: as §1

MDA-MB-453 [9] = test: as above
How it was run: as §1

Hs578T [10] = test: as above
How it was run: as §1

BT-549 [11] = test: as above
How it was run: as §1

MDA-MB-436 [12] = test: as above
How it was run: as §1

SK-BR-3 [13] = test: as above
How it was run: as §1

HCC1599 [14] = test: as above
How it was run: as §1

HDQ-P1 [15] = test: as above
How it was run: as §1

CAL-51 [16] = test: as above
How it was run: as §1

CAL-85-1 [17] = test: as above
How it was run: as §1

HCC1143 [18] = test: as above
How it was run: as §1

MDA-MB-468 [19] = test: normalised viability (% of control), CellTiter-Blue; higher = more viable cells (100 = DMSO, 0 = benzethonium chloride kill control)
How it was run: (§2)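 Breast cancer cell lines were treated for 72 h in 384-well format and measured by CellTiter-Blue fluorescence at 560/590 nm. Results were normalised per plate to vehicle (100) and a positive kill control (0). The entry is normalised viability at a single listed concentration of the series.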

DU-4475 [20] = test: as above
How it was run: as §2

MDA-MB-231 [21] = test: as above
How it was run: as §2

CAL-120 [22] = test: as above
How it was run: as §2

HCC1937 [23] = test: as above
How it was run: as §2

MFM-223 [24] = test: as above
How it was run: as §2

CAL-148 [25] = test: as above
How it was run: as §2

BT-474 [26] = test: as above
How it was run: as §2

MDA-MB-453 [27] = test: as above
How it was run: as §2

Hs578T [28] = test: as above
How it was run: as §2

BT-549 [29] = test: as above
How it was run: as §2

MDA-MB-436 [30] = test: as above
How it was run: as §2

SK-BR-3 [31] = test: as above
How it was run: as §2

HCC1599 [32] = test: as above
How it was run: as §2

HDQ-P1 [33] = test: as above
How it was run: as §2

CAL-51 [34] = test: as above
How it was run: as §2

CAL-85-1 [35] = test: as above
How it was run: as §2

HCC1143 [36] = test: as above
How it was run: as §2

Compound	normalised response (MDA-MB-468 [1]) [%]	normalised response (DU-4475 [2]) [%]	normalised response (MDA-MB-231 [3]) [%]	normalised response (CAL-120 [4]) [%]	normalised response (MCF-10A) [%]	normalised response (HCC1937 [5]) [%]	normalised response (MFM-223 [6]) [%]	normalised response (CAL-148 [7]) [%]	normalised response (BT-474 [8]) [%]	normalised response (MDA-MB-453 [9]) [%]	normalised response (Hs578T [10]) [%]	normalised response (BT-549 [11]) [%]	normalised response (MDA-MB-436 [12]) [%]	normalised response (SK-BR-3 [13]) [%]	normalised response (HCC1599 [14]) [%]	normalised response (HDQ-P1 [15]) [%]	normalised response (CAL-51 [16]) [%]	normalised response (CAL-85-1 [17]) [%]	normalised response (HCC1143 [18]) [%]	normalised viability (MDA-MB-468 [19]) [%]	normalised viability (DU-4475 [20]) [%]	normalised viability (MDA-MB-231 [21]) [%]	normalised viability (CAL-120 [22]) [%]	normalised viability (HCC1937 [23]) [%]	normalised viability (MFM-223 [24]) [%]	normalised viability (CAL-148 [25]) [%]	normalised viability (BT-474 [26]) [%]	normalised viability (MDA-MB-453 [27]) [%]	normalised viability (Hs578T [28]) [%]	normalised viability (BT-549 [29]) [%]	normalised viability (MDA-MB-436 [30]) [%]	normalised viability (SK-BR-3 [31]) [%]	normalised viability (HCC1599 [32]) [%]	normalised viability (HDQ-P1 [33]) [%]	normalised viability (CAL-51 [34]) [%]	normalised viability (CAL-85-1 [35]) [%]	normalised viability (HCC1143 [36]) [%]
O=c1[nH]c(=O)n([C@H]2C[C@H](O)[C@@H](CO)O2)cc1F [Floxuridine] (1 nM)	105	103	107	101	115	99.1	110	97.7	104	104	103	102	132	107	96.9	102	120	95.9	97.6	99.9	104	99	100	89.2	103	102	91.2	108	130	123	112	97.2	95.7	108	98.2	94.1	98.6
O=c1[nH]cc(F)c(=O)[nH]1 [Fluorouracil] (1 nM)	97.2	100	106	108	113	95.1	110	105	99.5	110	106	107	119	108	95.8	105	124	105	102	113	107	112	103	90.6	106	109	107	115	122	114	94.8	103	80.1	110	100	106	102
C[C@@H]1C=C2C(=O)O[C@@H]3CC[C@H](C1)[C@]23O [Galiellalactone] (5 nM)	108	97.2	103	105	111	98	107	107	106	108	107	101	107	108	102	107	104	98.1	105	96.7	104	93.7	81.3	84.3	102	115	105	97	109	112	94.6	94	88.1	120	106	94.9	98.9
COC1=C2C[C@@H](C)C[C@H](OC)[C@H](O)[C@@H](C)/C=C(\C)[C@H](OC(N)=O)[C@@H](OC)/C=C\C=C(/C)C(=O)NC(=CC1=O)C2=O [Geldanamycin] (1 nM)	109	102	103	107	105	101	103	129	105	127	108	101	107	110	101	101	100	101	107	103	132	96	92.6	92.3	99.9	119	112	108	130	96.8	110	103	87.6	124	105	94.6	95.3
